Measurements published in patent US10947260B2, “Phosphinolactone derivatives and pharmaceutical uses thereof” (INSTITUT NATIONAL DE LA SANTE ET DE LA RECHERCHE MEDICALE …, priority 2016, dated 2021).

Tested on: mice treated with scopolamine
Assay: Spontaneous alternation in Y-maze, scopolamine amnesia model
Format: in vivo
Details: IP; scopolamine model
Method: FIG. 5: Anti-amnesic effect of compound 3b in mice treated with scopolamine: (a, b) spontaneous alternation in Y-maze, and (c, d) passive avoidance. The mice were given compound 3b (0.03-1.5 mg/kg IP) 10 min before scopolamine (0.5 mg/kg SC), 20 min before the Y-maze session or passive avoidance training. Y-maze test: (a) spontaneous alternation and (b) total number of arm entries; retention of passive avoidance: (c) step-through latency and (d) escape latency. ANOVA: F(6.94)=5.32, p<0.0001 at (a); F(6.94)=10.6, p<0.0001 at (b); H=31.4, p<0.0001 at (c); H=24.3, p<0.001 at (d); n=12-19 per group. *p<0.05, **p<0.01, ***p<0.001 compared with group (Sc.Aβ+V); #p<0.05, ##p<0.01, ###p<0.001 compared with group (Aβ25-35+V); Dunnett test at (a, b) and Dunn at (c, d).
FIG. 6: Analysis of the antagonism of anti-amnesic effects of compound 3b in mice treated with scopolamine: (a, c, e) spontaneous alternation in Y-maze, and (b, d, f) step-through latency at recall session of passive avoidance. The mice were treated with methyllycaconitine (MLA, 1 or 3 mg/kg IP), dihydro-ß-erythroidine (DHßE, 1 or 3 mg/kg IP), or NE100 (1 mg/kg IP), simultaneously with compound 3b (0.1 mg/kg IP) 10 min before scopolamine (S, 0.5 mg/kg SC), 20 min before behavioural session. ANOVA: F(5.87)=7.19, p<0.0001 at (a); H=31.3, p<0.0001 at (b); F(5.82)=5.82, p<0.0001 at (c); H=28.8, p<0.0001 at (d); F(4.77)=10.0, p<0.0001 at (e); H=30.5, p<0.0001 at (f); n=12-17 per group. *p<0.05, **p<0.01, ***p<0.001 compared with group (Sc.Aβ+V); #p<0.05, ##p<0.01, ###p<0.001 compared with group (Aβ25-35+V); Dunnett test at (a, b) and Dunn at (c, d).
The animals were tested for spontaneous alternation performance in a Y-maze, an index of spatial working memory. The Y-maze was in grey PVC. Each arm was 40 cm long, 13 cm high, 3 cm wide at the base and 10 cm wide in the upper part, and converging at an equal angle. Each mouse was placed at one end of an arm and was able to move freely through the maze during an 8-min session. The series of arm entries, including any returns in the same arm were visually analysed. Alternation is defined as being consecutive entries in three different arms. The maximum number of alternations is therefore the total number of arm entries less two, and alternation percentage is calculated as (actual alternations/maximum possible alternations)×100. […]
Finally, a first mechanistic analysis of the pharmacological effect in vivo of compound 3b was carried out. With the objective of confirming that the compound, neuroprotective against amyloid toxicity, could also be anti-amnesic in a pharmacological amnesia model, we first determined its effectiveness against the amnesic effects of scopolamine. […]

In the case of CC1(C)COP(=O)(c2cccc(Cl)c2)C(C)(C)N1 (racemic) [Compound 3b, (±)-2-(3-Chlorophenyl)-2-oxo-3,3,5,5-tetramethyl-[1,4,2]-oxazaphosphinane], the “effective dose (anti-amnesic)” value is reported as 0.1 mg/kg.
